Columns and labels:
human BACE1 = human BACE1 (Homo sapiens, UniProt P56817); experiment: Fluorescent kinetic assay, human BACE1 (FRET peptide substrate WABC-6); assay type: biochemical; details: fluorescent kinetic assay, 25 μM substrate WABC-6, pH 4.5, room temperature; read-out: IC50 (μM) BACE 1;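 further: fluorescence monitored at excitation 320 nm and emission 420 nm over 30 min, with the substrate cleavage rate taken as the linear slope of the signal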
Chain of human BACE1 (P56817 46-501): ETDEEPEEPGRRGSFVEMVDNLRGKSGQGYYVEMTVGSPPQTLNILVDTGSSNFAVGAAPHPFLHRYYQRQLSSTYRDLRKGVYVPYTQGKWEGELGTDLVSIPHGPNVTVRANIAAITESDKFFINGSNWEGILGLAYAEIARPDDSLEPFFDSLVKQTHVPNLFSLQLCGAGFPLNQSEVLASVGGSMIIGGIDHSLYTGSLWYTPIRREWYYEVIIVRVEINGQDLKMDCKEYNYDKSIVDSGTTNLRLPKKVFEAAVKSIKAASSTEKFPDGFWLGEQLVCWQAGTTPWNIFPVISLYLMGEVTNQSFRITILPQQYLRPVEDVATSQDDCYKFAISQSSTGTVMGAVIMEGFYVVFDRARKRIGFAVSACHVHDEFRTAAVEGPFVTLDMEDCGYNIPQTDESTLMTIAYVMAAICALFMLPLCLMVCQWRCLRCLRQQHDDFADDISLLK

N=C(N)NC(=O)Cn1c(Cc2ccco2)ccc1-c1ccccc1 [Example 459, N-[amino(imino)methyl]-2-[2-(2-furylmethyl)-5-phenyl-1H-pyrrol-1-yl]acetamide]
melting point: 80 to 82 °C

NC(N)=NC(=O)Cn1c(C(=O)c2ccccc2)ccc1-c1ccccc1 [Example 455, N″-[(2-benzoyl-5-phenyl-1H-pyrrol-1-yl)acetyl]guanidine]
melting point: 201 to 203 °C

N=C(N)NC(=O)Cn1c(C(=O)c2ccco2)ccc1-c1ccccc1 [Example 456]
melting point: 175 to 177 °C

N=C(N)NC(=O)Cn1c(Cc2ccccc2)ccc1-c1ccccc1 [Example 458, N-[(2-benzyl-5-phenyl-1H-pyrrol-1-yl)acetyl]guanidine]
melting point: 155 to 158 °C

N=C(N)NC(=O)Cn1c(Cc2cccs2)ccc1-c1ccccc1 [Example 460, N-[amino(imino)methyl]-2-[2-phenyl-5-(thien-2-ylmethyl)-1H-pyrrol-1-yl]acetamide]
melting point: 99 to 120 °C

COc1ccc(OC)c(-c2ccc(-c3ccc(Oc4ccccc4)cc3)n2CC(=O)N=C(N)N)c1 [Example 133]
IC50 (human BACE1): 1.1 to 5 µM

COCCCNC(N)=NC(=O)Cn1c(-c2ccccc2)ccc1C12CC3CC(CC(C3)C1)C2 [Example 414]
IC50 (human BACE1): 0.11 to 1 µM

NC(=NC(=O)Cn1c(-c2ccccc2)ccc1-c1ccc(C(=O)NCCO)cc1)NCCCO [Example 464]
IC50 (human BACE1): 0.11 to 1 µM

C=CCNC(=O)c1ccc(-c2ccc(-c3ccccc3)n2CC(=O)N=C(N)NCc2nc(C)cs2)cc1 [Example 424]
IC50 (human BACE1): 0.11 to 1 µM

NC(=NC(=O)Cn1c(-c2ccccc2)ccc1C12CC3CC(CC(C3)C1)C2)NCC(F)(F)F [Example 408]
IC50 (human BACE1): 0.11 to 1 µM

CC(C)c1ccc(-c2ccc(-c3ccccc3)n2CC(=O)N=C(N)NCCCO)cc1 [Example 319]
IC50 (human BACE1): 0.11 to 1 µM

N/C(=N/C(=O)Cn1c(-c2ccc(OCCC3OCCO3)cc2)ccc1-c1ccccc1Cl)NCCCO [Example 316]
IC50 (human BACE1): 0.11 to 1 µM

NC(=NC(=O)Cn1c(-c2ccccc2)ccc1-c1ccc(C2CCCCC2)cc1)NCCCO [Example 327]
IC50 (human BACE1): 0.11 to 1 µM

C=CCCOc1ccc(-c2ccc(-c3ccccc3)n2CC(=O)N=C(N)N)cc1 [Example 273]
IC50 (human BACE1): 1.1 to 5 µM

COc1cccc(-c2ccc(-c3ccc4ccccc4c3)n2CC(=O)N=C(N)N)c1 [Example 147]
IC50 (human BACE1): 1.1 to 5 µM

NC(=NC(=O)Cn1c(-c2ccccc2)ccc1C12CC3CC(CC(C3)C1)C2)NCc1ccco1 [Example 401]
IC50 (human BACE1): 1.1 to 5 µM

N#CCc1ccc(-c2ccc(-c3ccccc3)n2CC(=O)NC(=N)N)cc1 [Example 451]
IC50 (human BACE1): 1.1 to 5 µM

CCCCc1ccc(-c2ccc(-c3ccccc3)n2CC(=O)N=C(N)NCCCO)cc1 [Example 321]
IC50 (human BACE1): 0.11 to 1 µM

From patent US7488832B2, “Azolylacylguanidines as β-secretase inhibitors” (Wyeth, priority 2005, dated 2009)
